Source: ChEMBL document CHEMBL4000152, “Synthesis and Antimalarial Activity of Mallatojaponin C and Related Compounds” (J Nat Prod, 2016)

Tests used:
[1] = tested on: Plasmodium falciparum; assay: Antiplasmodial activity against Plasmodium falciparum FcB1/Columbia infected in human erythrocytes assessed as parasite growth inhibition after 24 hrs by [3H]-hypoxanthine incorporation assay; type: functional, cell-based
[2] = tested on: Plasmodium falciparum; assay: Antiplasmodial activity against intraerythrocytic stage of Plasmodium falciparum Dd2 assessed as parasite growth inhibition after 72 hrs by SYBR Green I dye-based assay; type: functional; settings: Dd2, 72 h
[3] = Stability of the compound under freezing condition; type: physicochemical

Row | Compound | IC50 [1] | IC50 [2] | Stability [3]
1 | COc1cc(O)c(C(C)=O)c(O)c1CC=C(C)C | 7.4 µM | 1.7 µM | 
2 | COc1c(CCC(C)(C)O)c(O)c(C(C)=O)c(O)c1Cc1c(O)c(C(C)=O)c(O)c(CCC(C)(C)O)c1OC |  | > 10 µM | 
3 | COc1cc(O)c(C(C)=O)c(O)c1CCC(C)(C)O |  | > 20 µM | 
4 | COc1cc(O)c(C(C)=O)c(O)c1 |  | > 20 µM | 
5 | CC(=O)c1c(O)cc(O)cc1O [2,4,6-TRIHYDROXYACETOPHENONE] |  | > 20 µM | 
6 | CC(=O)c1c(O)cc(O)c(C/C=C(\C)CCC=C(C)C)c1O |  | 6.6 µM | 
7 | COc1cc(O)c(C(C)=O)c(O)c1C/C=C(\C)CCC=C(C)C | 4.4 µM | 0.57 µM | 
8 | CC(=O)c1c(O)c(CC=C(C)C)c(O)c(C(c2ccc(F)cc2)c2c(O)cc(O)c(CC=C(C)C)c2O)c1O (centres undefined) |  | 2 to 4 µM | Unstable
9 | COc1cc(O)c(C(C)=O)c(O)c1Cc1c(OC)cc(O)c(C(C)=O)c1O | 17.6 µM | 8.1 µM | 
10 | CC(=O)c1c(O)cc(O)c(C/C=C(/C)CC/C=C(/C)CCC=C(C)C)c1O |  | 3.6 µM | 
11 | COc1c(CC=C(C)C)c(O)c(C(C)=O)c(O)c1Cc1c(O)c(C(C)=O)c(O)c(CC=C(C)C)c1OC [MALLOTOJAPONIN C] | 0.75 µM |  | 
12 | COc1cc(O)c(C(C)=O)c(O)c1C/C=C(/C)CC/C=C(/C)CCC=C(C)C |  | 0.56 µM | 
13 | CC(=O)c1c(O)cc(O)c(CC=C(C)C)c1O |  | > 20 µM | 
14 | COc1c(C/C=C(\C)CCC=C(C)C)c(O)c(C(C)=O)c(O)c1Cc1c(O)c(C(C)=O)c(O)c(C/C=C(\C)CCC=C(C)C)c1OC | 6 µM | 1.7 µM | 
